Data as given in article PMC6259458, “Investigating the Spectrum of Biological Activity of Ring-Substituted Salicylanilides and Carbamoylphenylcarbamates” (Molecules, 2010).
Converted amounts (≈) assume the structure as drawn.

Tested on: not given
Test: not given
Set-up: method as in PMID 1151976
Conditions: parameter of the substituents in the anilide part; cited from earlier work

| SMILES | MR (bulk parameter, reflecting bulkiness) | σ (Hammett's parameter) |
| --- | --- | --- |
| CCCOc1ccccc1NC(=O)c1ccccc1O [Compound 5, 2-Hydroxy-N-(2-propoxyphenyl)benzamide] | 15.9 | – |
| O=C(Nc1cc(C(F)(F)F)ccc1Cl)c1ccc([N+](=O)[O-])cc1 [Compound 10, N-[2-Chloro-5-(trifluoromethyl)phenyl]-4-nitrobenzamide] | 8.7 | 1.10 |
| COC(=O)Nc1ccc(C(=O)Nc2cc(C(F)(F)F)ccc2Cl)cc1 [Compound 14, Methyl 4-[2-chloro-5-(trifluoromethyl)phenylcarbamoyl]phenylcarbamate] | 8.7 | 1.10 |
| Cc1cccc(C)c1NC(=O)c1ccccc1O [Compound 2, N-(2,6-Dimethylphenyl)-2-hydroxybenzamide] | 9.4 | 0.20 |
| Nc1ccc(C(=O)NCc2ccccc2Cl)cc1 [Compound 11, 4-Amino-N-(2-chlorobenzyl)benzamide] | 4.7 | 0.67 |
| CCOc1ccccc1NC(=O)c1ccccc1O [Compound 4, N-(2-Ethoxyphenyl)-2-hydroxybenzamide] | 11.3 | 0.02 |
| Nc1ccc(C(=O)Nc2cc(C(F)(F)F)ccc2Cl)cc1 [Compound 12, 4-Amino-N-[2-chloro-5-(trifluoromethyl)phenyl]benzamide] | 8.7 | 1.10 |

Tested on: photosynthetic electron transport (PET) in spinach chloroplasts
Test: Inhibition of photosynthetic electron transport (PET) in spinach chloroplasts, DCPIP photoreduction
Assay type: biochemical, Spinacia oleracea L.
Conditions: not given
Method: Chloroplasts were prepared from spinach (Spinacia oleracea L.) according to Masarovicova and Kralova. The inhibition of photosynthetic electron transport (PET) in spinach chloroplasts was determined spectrophotometrically (Genesys 6, Thermo Scientific, USA), using an artificial electron acceptor 2,6-dichlorophenol-indophenol (DCIPP) according to Kralova et al., and the rate of photosynthetic electron transport was monitored as a photoreduction of DCPIP. The measurements were carried out in phosphate buffer (0.02 mol/L, pH 7.2) containing sucrose (0.4 mol/L), MgCl2 (0.005 mol/L) and NaCl (0.015 mol/L). The chlorophyll content was 30 mg/L in these experiments and the samples were irradiated (~100 W/m^2) from 10 cm distance with a halogen lamp (250 W) using a 4 cm water filter to prevent warming of the samples (suspension temperature 22 °C). The studied compounds were dissolved in DMSO due to their limited water solubility.

| SMILES | PET-inhibiting / biological activity in words |
| --- | --- |
| O=C(Nc1cc(C(F)(F)F)ccc1Cl)c1ccc([N+](=O)[O-])cc1 [Compound 10, N-[2-Chloro-5-(trifluoromethyl)phenyl]-4-nitrobenzamide] | medium PET inhibiting activity |
| Nc1ccc(C(=O)NCc2ccccc2Cl)cc1 [Compound 11, 4-Amino-N-(2-chlorobenzyl)benzamide] | very low activity |
| Nc1ccc(C(=O)Nc2cc(C(F)(F)F)ccc2Cl)cc1 [Compound 12, 4-Amino-N-[2-chloro-5-(trifluoromethyl)phenyl]benzamide] | did not show any biological activity in any of the assays |

Same assay, conditions: DCPIP photoreduction, pH 7.2

| SMILES | IC50 [µM] |
| --- | --- |
| CCCOc1ccccc1NC(=O)c1ccccc1O [Compound 5, 2-Hydroxy-N-(2-propoxyphenyl)benzamide] | 44.8 |
| O=C(Nc1cc(C(F)(F)F)ccc1Cl)c1ccc([N+](=O)[O-])cc1 [Compound 10, N-[2-Chloro-5-(trifluoromethyl)phenyl]-4-nitrobenzamide] | 50.1 |
| COC(=O)Nc1ccc(C(=O)Nc2cc(C(F)(F)F)ccc2Cl)cc1 [Compound 14, Methyl 4-[2-chloro-5-(trifluoromethyl)phenylcarbamoyl]phenylcarbamate] | 1 |
| Cc1cccc(C)c1NC(=O)c1ccccc1O [Compound 2, N-(2,6-Dimethylphenyl)-2-hydroxybenzamide] | 331 |
| Nc1ccc(C(=O)NCc2ccccc2Cl)cc1 [Compound 11, 4-Amino-N-(2-chlorobenzyl)benzamide] | 398 |
| CCOc1ccccc1NC(=O)c1ccccc1O [Compound 4, N-(2-Ethoxyphenyl)-2-hydroxybenzamide] | 15 |

Tested on: Absidia corymbifera 272
Test: In vitro anti-fungal susceptibility, broth microdilution
Assay type: cell-based
Conditions: Lichtheimia corymbifera, 272, 24 h; read-out: MIC AC 24 h
Method: (§1) The broth microdilution test was used for the assessment of in vitro anti-fungal activity of the synthesized compounds against Absidia corymbifera 272 (AC) and Trichophyton mentagrophytes 445 (TM). Fluconazole (FLU) was used as the standard since it is a clinically used anti-mycotic drug. The procedure was performed with a two-fold dilution of the compounds in […]., Prague, Czech Republic) buffered to pH 7.0 with 0.165 mol of 3-morpholino-propane-1-sulfonic acid (MOPS, Sigma, Germany). […] Drug-free controls were included. […] The values of the minimum inhibitory concentration (MICs) were determined after 24 and 48 h of static incubation at 35 °C. For T. mentagrophytes, the final MICs were determined after 72 and 120 h of incubation.

| SMILES | MIC [µM] |
| --- | --- |
| CCCOc1ccccc1NC(=O)c1ccccc1O [Compound 5, 2-Hydroxy-N-(2-propoxyphenyl)benzamide] | 31.2 (≈ 8.48 µg/mL) |
| Cc1cccc(C)c1NC(=O)c1ccccc1O [Compound 2, N-(2,6-Dimethylphenyl)-2-hydroxybenzamide] | > 250 |
| OC(Cn1cncn1)(Cn1cncn1)c1ccc(F)cc1F [FLU, Fluconazole, reference compound] | > 125 |
| CCOc1ccccc1NC(=O)c1ccccc1O [Compound 4, N-(2-Ethoxyphenyl)-2-hydroxybenzamide] | 62.5 (≈ 16.1 µg/mL) |

Same assay, conditions: Lichtheimia corymbifera, 272, 48 h; read-out: MIC AC 48 h

| SMILES | MIC [µM] |
| --- | --- |
| CCCOc1ccccc1NC(=O)c1ccccc1O [Compound 5, 2-Hydroxy-N-(2-propoxyphenyl)benzamide] | 31.2 (≈ 8.48 µg/mL) |
| Cc1cccc(C)c1NC(=O)c1ccccc1O [Compound 2, N-(2,6-Dimethylphenyl)-2-hydroxybenzamide] | > 250 |
| OC(Cn1cncn1)(Cn1cncn1)c1ccc(F)cc1F [FLU, Fluconazole, reference compound] | > 125 |
| CCOc1ccccc1NC(=O)c1ccccc1O [Compound 4, N-(2-Ethoxyphenyl)-2-hydroxybenzamide] | 125 (≈ 32.2 µg/mL) |

Tested on: Trichophyton mentagrophytes 445
Test: as above
Assay type: cell-based
Conditions: 72 h, MIC = IC50 value, NA = no significant activity, read-out: MIC TM 72 h
Method: as §1

| SMILES | MIC [µM] |
| --- | --- |
| CCCOc1ccccc1NC(=O)c1ccccc1O [Compound 5, 2-Hydroxy-N-(2-propoxyphenyl)benzamide] | 31.2 (≈ 8.48 µg/mL) |
| Cc1cccc(C)c1NC(=O)c1ccccc1O [Compound 2, N-(2,6-Dimethylphenyl)-2-hydroxybenzamide] | 250 (≈ 60.3 µg/mL) |
| OC(Cn1cncn1)(Cn1cncn1)c1ccc(F)cc1F [FLU, Fluconazole, reference compound] | 1.95 (≈ 0.597 µg/mL) |
| CCOc1ccccc1NC(=O)c1ccccc1O [Compound 4, N-(2-Ethoxyphenyl)-2-hydroxybenzamide] | 62.5 (≈ 16.1 µg/mL) |

Same assay, conditions: 120 h, MIC = IC50 value, NA = no significant activity, read-out: MIC TM 120 h

| SMILES | MIC [µM] |
| --- | --- |
| CCCOc1ccccc1NC(=O)c1ccccc1O [Compound 5, 2-Hydroxy-N-(2-propoxyphenyl)benzamide] | 31.2 (≈ 8.48 µg/mL) |
| Cc1cccc(C)c1NC(=O)c1ccccc1O [Compound 2, N-(2,6-Dimethylphenyl)-2-hydroxybenzamide] | 500 (≈ 121 µg/mL) |
| OC(Cn1cncn1)(Cn1cncn1)c1ccc(F)cc1F [FLU, Fluconazole, reference compound] | 3.91 (≈ 1.2 µg/mL) |
| CCOc1ccccc1NC(=O)c1ccccc1O [Compound 4, N-(2-Ethoxyphenyl)-2-hydroxybenzamide] | 62.5 (≈ 16.1 µg/mL) |

Tested on: methicilin resistant Staphylococcus aureus H 5996/08
Test: In vitro anti-bacterial susceptibility, Mueller-Hinton broth
Assay type: cell-based
Conditions: MRSA; methicillin-resistant Staphylococcus aureus, 24 h, MIC = IC90 value; NA = no significant activity; read-out: MIC MRSA 24 h

| SMILES | MIC [µM] |
| --- | --- |
| CCCOc1ccccc1NC(=O)c1ccccc1O [Compound 5, 2-Hydroxy-N-(2-propoxyphenyl)benzamide] | 31.2 (≈ 8.48 µg/mL) |
| Cc1cccc(C)c1NC(=O)c1ccccc1O [Compound 2, N-(2,6-Dimethylphenyl)-2-hydroxybenzamide] | > 500 |
| CCOc1ccccc1NC(=O)c1ccccc1O [Compound 4, N-(2-Ethoxyphenyl)-2-hydroxybenzamide] | 125 (≈ 32.2 µg/mL) |
| CC1(C)S[C@@H]2[C@H](NC(=O)Cc3ccccc3)C(=O)N2[C@H]1C(=O)O [PEN, Penicillin G, reference compound] | 125 (≈ 41.8 µg/mL) |

Same assay, conditions: MRSA; methicillin-resistant Staphylococcus aureus, 48 h, MIC = IC90 value; NA = no significant activity; read-out: MIC MRSA 48 h

| SMILES | MIC [µM] |
| --- | --- |
| CCCOc1ccccc1NC(=O)c1ccccc1O [Compound 5, 2-Hydroxy-N-(2-propoxyphenyl)benzamide] | 31.2 (≈ 8.48 µg/mL) |
| Cc1cccc(C)c1NC(=O)c1ccccc1O [Compound 2, N-(2,6-Dimethylphenyl)-2-hydroxybenzamide] | > 500 |
| CCOc1ccccc1NC(=O)c1ccccc1O [Compound 4, N-(2-Ethoxyphenyl)-2-hydroxybenzamide] | 125 (≈ 32.2 µg/mL) |
| CC1(C)S[C@@H]2[C@H](NC(=O)Cc3ccccc3)C(=O)N2[C@H]1C(=O)O [PEN, Penicillin G, reference compound] | 125 (≈ 41.8 µg/mL) |

Tested on: Staphylococcus epidermidis H 6966/08
Test: as above
Assay type: cell-based
Conditions: H6966/08, 24 h, MIC = IC90 value, NA = no significant activity, read-out: MIC SE 24 h

| SMILES | MIC [µM] |
| --- | --- |
| CCCOc1ccccc1NC(=O)c1ccccc1O [Compound 5, 2-Hydroxy-N-(2-propoxyphenyl)benzamide] | 31.2 (≈ 8.48 µg/mL) |
| Cc1cccc(C)c1NC(=O)c1ccccc1O [Compound 2, N-(2,6-Dimethylphenyl)-2-hydroxybenzamide] | > 500 |
| CCOc1ccccc1NC(=O)c1ccccc1O [Compound 4, N-(2-Ethoxyphenyl)-2-hydroxybenzamide] | 125 (≈ 32.2 µg/mL) |
| CC1(C)S[C@@H]2[C@H](NC(=O)Cc3ccccc3)C(=O)N2[C@H]1C(=O)O [PEN, Penicillin G, reference compound] | 31.6 (≈ 10.6 µg/mL) |

Same assay, conditions: H6966/08, 48 h, MIC = IC90 value, NA = no significant activity, read-out: MIC SE 48 h

| SMILES | MIC [µM] |
| --- | --- |
| CCCOc1ccccc1NC(=O)c1ccccc1O [Compound 5, 2-Hydroxy-N-(2-propoxyphenyl)benzamide] | 31.2 (≈ 8.48 µg/mL) |
| Cc1cccc(C)c1NC(=O)c1ccccc1O [Compound 2, N-(2,6-Dimethylphenyl)-2-hydroxybenzamide] | > 500 |
| CCOc1ccccc1NC(=O)c1ccccc1O [Compound 4, N-(2-Ethoxyphenyl)-2-hydroxybenzamide] | 125 (≈ 32.2 µg/mL) |
| CC1(C)S[C@@H]2[C@H](NC(=O)Cc3ccccc3)C(=O)N2[C@H]1C(=O)O [PEN, Penicillin G, reference compound] | 125 (≈ 41.8 µg/mL) |

Tested on: not listed separately
Test: Lipophilicity determination by RP-HPLC (capacity factor k / log k)
Assay type: physicochemical
Conditions: C18 column, MeOH 70% / H2O 30%, isocratic
Method: Hydrophobicities (log P/Clog P) of the compounds 1-5 and 8-14 were calculated using two commercially available programs (ChemDraw Ultra 10.0 and ACD/LogP) and also measured by means of the RP-HPLC determination of capacity factors k with subsequent calculation of log k. The procedure was performed under isocratic conditions with methanol as an organic modifier in the mobile phase using an end-capped non-polar C18 stationary RP column. The results are shown in Table 1 and illustrated in Figure 1.
A Waters Alliance 2695 XE HPLC separation module and a Waters Photodiode Array Detector 2996 (Waters Corp., Milford, MA, USA) were used. A Symmetry® C18 5 μm, 4.6 × 250 mm, Part No. WAT054275 (Waters Corp., Milford, MA, USA) chromatographic column was used. The HPLC separation process was monitored by Empower™ 2 Chromatography Data Software, Waters 2009 (Waters Corp., Milford, MA, USA). A mixture of MeOH p.a. (70%) and H2O-HPLC – Mili-Q Grade (30%) was used as a mobile phase. The total flow of the column was 1.0 mL/min, injection volume 30 μL, column temperature 30 °C and sample temperature 10°C. The detection wavelength of 210 nm was chosen. The KI methanolic solution was used for the dead time (tD) determination. Retention times (tR) were measured in minutes. The capacity factors k were calculated using the Empower™ 2 Chromatography Data Software according to formula k = (tR - tD)/tD, where tR is the retention time of the solute, whereas tD denotes the dead time obtained using an unretained analyte. Log k, calculated from the capacity factor k, is used as the lipophilicity index converted to log P scale.

| SMILES | log k |
| --- | --- |
| CCCOc1ccccc1NC(=O)c1ccccc1O [Compound 5, 2-Hydroxy-N-(2-propoxyphenyl)benzamide] | 0.8401 |
| O=C(Nc1cc(C(F)(F)F)ccc1Cl)c1ccc([N+](=O)[O-])cc1 [Compound 10, N-[2-Chloro-5-(trifluoromethyl)phenyl]-4-nitrobenzamide] | 0.8269 |
| COC(=O)Nc1ccc(C(=O)Nc2cc(C(F)(F)F)ccc2Cl)cc1 [Compound 14, Methyl 4-[2-chloro-5-(trifluoromethyl)phenylcarbamoyl]phenylcarbamate] | 0.7782 |
| Cc1cccc(C)c1NC(=O)c1ccccc1O [Compound 2, N-(2,6-Dimethylphenyl)-2-hydroxybenzamide] | 0.6807 |
| Nc1ccc(C(=O)NCc2ccccc2Cl)cc1 [Compound 11, 4-Amino-N-(2-chlorobenzyl)benzamide] | 0.5886 |
| CCOc1ccccc1NC(=O)c1ccccc1O [Compound 4, N-(2-Ethoxyphenyl)-2-hydroxybenzamide] | 0.7515 |
